According to the NIST ThermoML archive (doi:10.1021/je200811n):

Conditions: Hot wire method

F/C=C/C(F)(F)F [trans-1,3,3,3-tetrafluoropropene]
Conditions	thermal conductivity [W/m/K]
281.63 K, 15232 kPa, Liquid	0.08862
281.67 K, 23307 kPa, Liquid	0.09249
281.68 K, 20203 kPa, Liquid	0.09077
281.7 K, 445 kPa, Liquid	0.08035
281.71 K, 5379 kPa, Liquid	0.08327
281.72 K, 15226 kPa, Liquid	0.08837
281.76 K, 10284 kPa, Liquid	0.08598
281.8 K, 5372 kPa, Liquid	0.08315
281.82 K, 242 kPa, Gas	0.01258
281.84 K, 200 kPa, Gas	0.01237
281.86 K, 99 kPa, Gas	0.01213
281.86 K, 141 kPa, Gas	0.01223
282.04 K, 23299 kPa, Liquid	0.09237
282.06 K, 242 kPa, Gas	0.01258
282.06 K, 20222 kPa, Liquid	0.09082
282.07 K, 438 kPa, Liquid	0.07934
282.1 K, 200 kPa, Gas	0.01234
282.13 K, 98 kPa, Gas	0.01208
282.13 K, 140 kPa, Gas	0.01217
282.14 K, 434 kPa, Liquid	0.07983
282.14 K, 10286 kPa, Liquid	0.08591
282.15 K, 23304 kPa, Liquid	0.09213
282.17 K, 20224 kPa, Liquid	0.09064
282.2 K, 5363 kPa, Liquid	0.08314
282.21 K, 15223 kPa, Liquid	0.08817
282.28 K, 10288 kPa, Liquid	0.08566
282.31 K, 242 kPa, Gas	0.01258
282.32 K, 5352 kPa, Liquid	0.08296
282.36 K, 200 kPa, Gas	0.0123
282.4 K, 138 kPa, Gas	0.01213
282.52 K, 245 kPa, Gas	0.01231
282.54 K, 431 kPa, Liquid	0.07937
282.54 K, 23312 kPa, Liquid	0.09188
282.58 K, 200 kPa, Gas	0.01226
282.58 K, 20215 kPa, Liquid	0.09057
282.63 K, 428 kPa, Liquid	0.07955
282.64 K, 15228 kPa, Liquid	0.08812
282.67 K, 145 kPa, Gas	0.01228
282.69 K, 23303 kPa, Liquid	0.09187
282.7 K, 10287 kPa, Liquid	0.0852
282.73 K, 20227 kPa, Liquid	0.09025
282.76 K, 103 kPa, Gas	0.01237
282.77 K, 5352 kPa, Liquid	0.08245
282.79 K, 15232 kPa, Liquid	0.0878
282.86 K, 10284 kPa, Liquid	0.08516
282.9 K, 243 kPa, Gas	0.01231
282.94 K, 5351 kPa, Liquid	0.08227
282.95 K, 199 kPa, Gas	0.01234
283.04 K, 425 kPa, Liquid	0.07934
283.07 K, 143 kPa, Gas	0.01233
283.13 K, 23323 kPa, Liquid	0.0916
283.15 K, 424 kPa, Liquid	0.0789
283.17 K, 20222 kPa, Liquid	0.08992
283.19 K, 101 kPa, Gas	0.01241
283.23 K, 15235 kPa, Liquid	0.08758
283.26 K, 280 kPa, Gas	0.01243
283.3 K, 242 kPa, Gas	0.01229
283.33 K, 10277 kPa, Liquid	0.08464
283.35 K, 20230 kPa, Liquid	0.08937
283.37 K, 199 kPa, Gas	0.01232
283.41 K, 5347 kPa, Liquid	0.08183
283.44 K, 15228 kPa, Liquid	0.08686
283.5 K, 142 kPa, Gas	0.01236
283.52 K, 10279 kPa, Liquid	0.08429
283.62 K, 5351 kPa, Liquid	0.08173
283.63 K, 100 kPa, Gas	0.01246
283.64 K, 280 kPa, Gas	0.0125
283.73 K, 242 kPa, Gas	0.01238
283.81 K, 200 kPa, Gas	0.01236
283.96 K, 140 kPa, Gas	0.01236
284.06 K, 280 kPa, Gas	0.01255
284.11 K, 98 kPa, Gas	0.01249
284.18 K, 242 kPa, Gas	0.01239
284.26 K, 200 kPa, Gas	0.01238
284.45 K, 139 kPa, Gas	0.01242
284.62 K, 97 kPa, Gas	0.0125
291.03 K, 97 kPa, Gas	0.01317
291.05 K, 154 kPa, Gas	0.0132
291.06 K, 237 kPa, Gas	0.01331
291.26 K, 96 kPa, Gas	0.013
291.28 K, 154 kPa, Gas	0.01305
291.28 K, 236 kPa, Gas	0.01323
291.51 K, 234 kPa, Gas	0.01316
291.52 K, 95 kPa, Gas	0.01287
291.52 K, 155 kPa, Gas	0.01297
291.76 K, 232 kPa, Gas	0.01312
291.79 K, 95 kPa, Gas	0.01281
291.79 K, 155 kPa, Gas	0.01291
292.02 K, 231 kPa, Gas	0.01307
292.06 K, 94 kPa, Gas	0.01276
292.06 K, 155 kPa, Gas	0.01287
292.13 K, 314 kPa, Gas	0.01299
292.21 K, 238 kPa, Gas	0.01305
292.32 K, 154 kPa, Gas	0.01313
292.44 K, 97 kPa, Gas	0.01319
292.5 K, 311 kPa, Gas	0.01305
292.51 K, 336 kPa, Gas	0.0131
292.59 K, 236 kPa, Gas	0.01303
292.72 K, 154 kPa, Gas	0.01308
292.85 K, 96 kPa, Gas	0.01324
292.88 K, 308 kPa, Gas	0.01303
292.89 K, 333 kPa, Gas	0.01312
292.98 K, 235 kPa, Gas	0.01313
293.14 K, 154 kPa, Gas	0.01304
293.29 K, 330 kPa, Gas	0.01314
293.3 K, 95 kPa, Gas	0.01322
293.3 K, 306 kPa, Gas	0.0131
293.32 K, 349 kPa, Gas	0.01317
293.41 K, 233 kPa, Gas	0.01314
293.54 K, 400 kPa, Gas	0.01316
293.58 K, 155 kPa, Gas	0.01322
293.68 K, 347 kPa, Gas	0.01318
293.72 K, 327 kPa, Gas	0.01313

Liquid
Conditions	thermal conductivity [W/m/K]
283.15 K	0.07962
293.15 K	0.07611
